The values that follow come from patent publication US10399958B2, “PPAR agonists, compounds, pharmaceutical compositions, and methods of use thereof” (Mitobridge, Inc., priority 2015, dated 2019).

Like-named read-outs stand apart in the source and are kept apart here.

The target in data set [1] is PPAR delta (Homo sapiens (Human), UniProt Q03181). The data set is described as follows: PPARδ activity screen: GAL4-PPARδ LBD transactivation luciferase reporter in CV-1 cells. The class given is cell-based. As to the method: CV-1 cells were grown in DMEM+10% charcoal stripped FCS. Cells were seeded into 384-well plates the day before transfection to give a confluency of 50-80% at transfection. A total of […] containing 0.64 micrograms pCMX-PPARDelta LBD, 0.1 micrograms pCMXβGal, 0.08 micrograms pGLMH2004 reporter and 0.02 micrograms pCMX empty vector was transfected per well using FuGene transfection reagent according to the manufacturer's instructions (Roche). Cells were allowed to express protein for 48 h followed by addition of compound.
Human PPARδ was used to PCR amplify the PPARδ LBD. […] Ensuing fusions were verified by sequencing.
All compounds were dissolved in DMSO and diluted 1:1000 upon addition to the cells. Compounds were tested in quadruple in concentrations ranging from 0.001 to 100 μM. Cells were treated with compound for 24 h followed by luciferase assay. Each compound was tested in at least two separate experiments.
Medium including test compound was aspirated and washed with PBS. 50 μl PBS including 1 mM Mg++ and Ca++ were then added to each well. The luciferase assay was performed using the LucLite kit according to the manufacturer's instructions (Packard Instruments). Light emission was quantified by counting on a Perkin Elmer Envision reader. […] Beta-galactosidase assays were performed in the microwell plates using a kit from Promega and read in a Perkin Elmer Envision reader. The beta-galactosidase data were used to normalize (transfection efficiency, cell growth etc.) the luciferase data.
The activity of a compound is calculated as fold induction compared to an untreated sample. For each compound the efficacy (maximal activity) is given as a relative activity compared to GW501516, a PPARδ agonist. […] EC50 values were calculated via non-linear regression usingGraphPad PRISM (GraphPad Software, San Diego, Calif.).
For orientation: A reporter such as luciferase makes a cellular process visible.

Data set [2] can be described thus: Pharmacokinetic (PK) screening (i.v.) in male CD1 mice. The class given is in vivo, mouse. The settings on record: for clearance: male, CD1, mouse, plasma, iv. Here is the method: In this example, the intravenous PK profile of several PPARδ agonists disclosed herein in male CD1 mice was determined. Similar methods can be used to analyze other compounds provided herein. All compounds were administered separately to CD1 mice at 1 mg/kg (i.v.), except the comparator compound to 2c was administered at 3 mg/kg (i.v.), as noted below.

The test system of data set [3] is Sprague-Dawley rat acute kidney injury. The data set is described as follows: Ischemia-reperfusion kidney injury in rats, plasma creatinine. The class given is in vivo. The following applies: 30 mg/kg orally 4 hours after surgery, blood 24 hours after reperfusion, FIG. 11. Here is the method:
Sprague-Dawley male rats approximately 280-300 g, with ad libitum access to standard feed and water were used in these experiments. Rats were anesthetized with isoflurane and placed ventrally on a temperature controlled heated surgical platform. A skin incision was made on the dorsal surface, exposing both kidneys through flank incisions. Vascular clips were applied to both renal pedicles and occlusion lasted 45 minutes. After 45 min, the clips were removed, kidneys were monitored for successful reperfusion, and surgical sites were sutured. The sham group was subjected to similar surgical procedures, except that the occluding clamps were not applied. Four independent studies, testing each compound were performed. Compounds were formulated as a fresh daily suspension in 0.25% sodium carboxymethyl-cellulose, 0.25% Tween-80 in purified water. Compounds were dosed orally at 30 mg/kg 4 hours after animals awoke from surgery and sham surgery and IRI control animals were similarly dosed with vehicle.
Twenty-four (24) hours after reperfusion, blood was collected in K2 EDTA tubes by retro-orbital bleeding from all groups under mild isoflurane anesthesia. Plasma was separated by centrifugation at 3000 rpm for 10 minutes at 4° C. Plasma creatinine was analyzed using a fully automated clinical biochemistry analyzer (Siemens Dimension® Xpand® Plus Integrated Chemistry System)
Creatinine was tested for normal distribution in all groups via a D'Agostino-Pearson omnibus normality test and a Shapiro-Wilk normality test. Normally distributed data was subjected to an unpaired, two-tailed t test. Non-normally distributed data was subjected to a Mann-Whitney test (non-parametric). Statistical significance is determined by p<0.05 of IRI-vehicle compared to compound treated groups.

Where [4] appears, read: CV-1 cells, 24 h compound treatment, luciferase, read-out: PPAR delta transactivation EC50.
[5] abbreviates: 1 mg/kg, I.V. 1 mg/kg dose, read-out: CL.
Where [6] appears, read: 1 mg/kg, I.V. 1 mg/kg dose, read-out: High or Low CL.

PPAR delta, sequence (Q03181 128-441 limits assumed): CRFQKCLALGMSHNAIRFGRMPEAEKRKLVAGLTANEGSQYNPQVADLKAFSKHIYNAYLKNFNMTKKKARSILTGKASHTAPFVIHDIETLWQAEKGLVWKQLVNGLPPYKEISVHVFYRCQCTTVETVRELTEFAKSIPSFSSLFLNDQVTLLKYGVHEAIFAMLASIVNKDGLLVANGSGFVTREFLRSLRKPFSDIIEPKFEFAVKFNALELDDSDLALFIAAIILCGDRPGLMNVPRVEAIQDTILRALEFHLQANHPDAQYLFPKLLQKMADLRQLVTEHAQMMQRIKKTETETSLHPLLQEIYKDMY

Take `Cc1cnc(-c2ccc(C(F)(F)F)cc2)n1Cc1ccccc1OCCCCCC(=O)O` [Comparator Compound 1, reference compound]: in data set [1] (setting [4]), the EC50 was found to be 0.1 nM.

For the compound `Cc1cnc(-c2ccc(C(F)(F)F)nc2)n1Cc1ccccc1OCCCCCC(=O)O` [Comparator Compound 2, reference compound], in data set [1] (setting [4]), the EC50 stood at 3.8 nM.

Turning to `Cc1cnc(-c2ccc(OC(F)(F)F)cc2)n1Cc1ccccc1OCCC[C@@H](C)CC(=O)O` [Compound 2a, (R)-3-methyl-6-(2-((5-methyl-2-(4-(trifluoromethoxy)phenyl)-1H-imidazol-1-yl)methyl)phenoxy)hexanoic acid], the clearance is 33 mL/min/kg in data set [2] (setting [5]) and below 85 mL/min/kg in data set [2] (setting [6]). For the same compound, the Plasma creatinine entry in data set [3] is on record as “reduce plasma creatinine”. The same compound came in with an EC50 in data set [1] of 1 nM.

Take `Cc1cnc(-c2ccc(Cl)cc2)n1Cc1ccccc1OCCC[C@@H](C)CC(=O)O` [Compound 2b, (R)-6-(2-((2-(4-chlorophenyl)-5-methyl-1H-imidazol-1-yl)methyl)phenoxy)-3-methylhexanoic acid]: the clearance in data set [2] (setting [5]) is 22 mL/min/kg; in data set [2] (setting [6]), below 85 mL/min/kg. The EC50 in data set [1] was found to be 7.8 nM.

Turning to `Cc1cnc(-c2ccc(-c3ccco3)cc2)n1Cc1ccccc1OCCC[C@@H](C)CC(=O)O` [Compound 2c, (R)-6-(2-((2-(4-(furan-2-yl)phenyl)-5-methyl-1H-imidazol-1-yl)methyl)phenoxy)-3-methylhexanoic acid], the clearance in data set [2] (setting [5]) was 73 mL/min/kg; in data set [2] (setting [6]), below 85 mL/min/kg. In data set [1] (setting [4]), the EC50 stood at 3.7 nM.

Consider `C/C(=C\COc1ccccc1Cn1c(C)cnc1-c1ccc(OC(F)(F)F)cc1)CCC(=O)O` [Compound 2e, (E)-4-methyl-6-(2-((5-methyl-2-(4-(trifluoromethoxy)phenyl)-1H-imidazol-1-yl)methyl)phenoxy)hex-4-enoic acid], for which the clearance in data set [2] (setting [5]) is 70 mL/min/kg; in data set [2] (setting [6]) it was below 85 mL/min/kg. In addition, the EC50 in data set [1] (setting [4]) turned out to be 0.2 nM.

As to `Cc1ccc(-c2ncc(C)n2Cc2ccccc2OCCC[C@@H](C)CC(=O)O)cc1` [Compound 2f, (R)-3-methyl-6-(2-((5-methyl-2-(p-tolyl)-1H-imidazol-1-yl)methyl)phenoxy) hexanoic acid], the EC50 in data set [1] amounted to 24.3 nM.

`Cc1cnc(-c2ccc(F)cc2)n1Cc1ccccc1OCCC[C@@H](C)CC(=O)O` [Compound 2g, (R)-6-(2-((2-(4-fluorophenyl)-5-methyl-1H-imidazol-1-yl)methyl)phenoxy)-3-methylhexanoic acid]: the EC50 in data set [1] (setting [4]) was found to be 39 nM.

On to `Cc1cnc(-c2ccc(C(F)(F)F)c(F)c2)n1Cc1ccccc1OCCCCC(C)(C)C(=O)O` [Compound 2h, 6-(2-((2-(3-fluoro-4-(trifluoromethyl)phenyl)-5-methyl-1H-imidazol-1-yl)methyl)phenoxy)-2,2-dimethylhexanoic acid], for which the clearance in data set [2] (setting [5]) is 25 mL/min/kg; in data set [2] (setting [6]), below 85 mL/min/kg. The EC50 in data set [1] (setting [4]) worked out at 3.5 nM.

As for `Cc1cnc(-c2ccc(Cl)c(F)c2)n1Cc1ccccc1OCCCCC(C)(C)C(=O)O` [Compound 2i, 6-(2-((2-(4-chloro-3-fluorophenyl)-5-methyl-1H-imidazol-1-yl)methyl)-phenoxy)-2,2-dimethylhexanoic acid], the EC50 in data set [1] (setting [4]) was determined as 18.8 nM.

On to `Cc1cnc(-c2ccc(Cl)c(F)c2)n1Cc1ccccc1OCCC[C@@H](C)CC(=O)O` [Compound 2j, (R)-6-(2-((2-(4-chloro-3-fluorophenyl)-5-methyl-1H-imidazol-1-yl)methyl)phenoxy)-3-methylhexanoic acid], for which the clearance in data set [2] (setting [5]) is 38 mL/min/kg; in data set [2] (setting [6]) it was below 85 mL/min/kg. For the same compound, in data set [1] (setting [4]), the EC50 turned out to be 0.8 nM.

With `Cc1cnc(-c2ccc(C(F)(F)F)cc2)n1Cc1cc(F)ccc1OCCC[C@@H](C)CC(=O)O` [Compound 2k, (R)-6-(4-fluoro-2-((5-methyl-2-(4-(trifluoromethyl)phenyl)-1H-imidazol-1-yl)methyl)phenoxy)-3-methylhexanoic acid], the clearance is 17 mL/min/kg in data set [2] (setting [5]) and below 85 mL/min/kg in data set [2] (setting [6]). The EC50 in data set [1] (setting [4]) stood at 6.6 nM.

As to `Cc1cnc(-c2ccc(OC(F)F)cc2)n1Cc1ccccc1OCCC[C@@H](C)CC(=O)O` [Compound 2l, (R)-6-(2-((2-(4-(difluoromethoxy)phenyl)-5-methyl-1H-imidazol-1-yl)methyl)phenoxy)-3-methylhexanoic acid], the EC50 in data set [1] (setting [4]) was 13.5 nM.

`Cc1ccc(OCCC[C@@H](C)CC(=O)O)c(Cn2c(C)cnc2-c2ccc(OC(F)(F)F)cc2)c1` [Compound 2m, (R)-3-methyl-6-(4-methyl-2-((5-methyl-2-(4-(trifluoromethoxy)phenyl)-1H-imidazol-1-yl)methyl)phenoxy)hexanoic acid]: the clearance in data set [2] (setting [5]) is 85 mL/min/kg; in data set [2] (setting [6]), below 85 mL/min/kg. In data set [1] (setting [4]), the EC50 turned out to be 0.5 nM.

Take `Cc1cnc(-c2ccc(C(F)(F)F)nc2)n1Cc1ccccc1OCCC[C@@H](C)CC(=O)O` [Compound 2n, (R)-3-methyl-6-(2-((5-methyl-2-(6-(trifluoromethyl)pyridin-3-yl)-1H-imidazol-1-yl)methyl)phenoxy)hexanoic acid]: the clearance was 62 mL/min/kg in data set [2] (setting [5]) and below 85 mL/min/kg in data set [2] (setting [6]). In addition, the Plasma creatinine result in data set [3] was “reduce plasma creatinine”.

Consider `Cc1cnc(-c2ccc(C(F)F)cc2)n1Cc1ccccc1OCCC[C@@H](C)CC(=O)O` [Compound 2o, (R)-6-(2-((2-(4-(difluoromethyl)phenyl)-5-methyl-1H-imidazol-1-yl)methyl)phenoxy)-3-methylhexanoic acid], for which, in data set [1] (setting [4]), the EC50 was 9.9 nM.

In the case of `CSc1ccc(-c2ncc(C)n2Cc2ccccc2OCCC[C@@H](C)CC(=O)O)cc1` [Compound 2p, (R)-3-methyl-6-(2-((5-methyl-2-(4-(methylthio)phenyl)-1H-imidazol-1-yl)methyl)phenoxy)hexanoic acid], the EC50 in data set [1] (setting [4]) is 13.1 nM.

`Cc1cnc(-c2ccc(C(F)(F)F)cc2)n1Cc1ccccc1OCCCCC(C)(C)C(=O)O` [Compound 2q, 2,2-dimethyl-6-(2-((5-methyl-2-(4-(trifluoromethyl)phenyl)-1H-imidazol-1-yl)methyl)phenoxy)hexanoic acid]: the clearance is 11 mL/min/kg in data set [2] (setting [5]) and below 85 mL/min/kg in data set [2] (setting [6]). For the same compound, the EC50 in data set [1] (setting [4]) worked out at 14.3 nM.

Turning to `Cc1cnc(-c2ccc(-c3ccco3)cc2)n1Cc1ccccc1OCCCCCC(=O)O` [comparator compound to 2c, reference compound], the clearance in data set [2] (3 mg/kg, 3 mg/kg i.v. dose, read-out: CL) was 270 mL/min/kg; in data set [2] (3 mg/kg, 3 mg/kg i.v. dose, read-out: High or Low CL), above 85 mL/min/kg.

As for `Cc1cnc(-c2ccc(C(F)(F)F)cc2)n1Cc1ccccc1OCCCCCC(=O)O` [comparator compound to 2d, reference compound], the “CL / exposure after i.v. dose (result in words)” value in data set [2] (I.V. 1 mg/kg dose) is on record as “Due to low exposure data could not be measured”.

Turning to `Cc1cnc(-c2ccc(OC(F)(F)F)cc2)n1Cc1ccccc1OCCCCCC(=O)O` [comparator compound to 2e, reference compound], the clearance in data set [2] (setting [5]) is 185 mL/min/kg; in data set [2] (setting [6]), above 85 mL/min/kg.

For the compound `Cc1cnc(-c2ccc(C(F)(F)F)nc2)n1Cc1ccccc1OCCCCCC(=O)O` [comparator compound to 2n, reference compound], the “CL / exposure after i.v. dose (result in words)” value in data set [2] (I.V. 1 mg/kg dose) is “Due to low exposure data could not be measured”.
